Tests used:
glucose oxidase = target: T1, glucose oxidase (Aspergillus niger, UniProt P13006); test: Hydrogen peroxide generation by glucose oxidase after dilution of the mixture in laundry wash liquor, dipsticks; assay type: biochemical; settings: for Hydrogen Peroxide Generation, PPM H2O2 / H2O2 PPM: wash liquor, 1 mM glucose; for Hydrogen Peroxide Generation, PPM H2O2: 1 PPM oxidase; for character of glucose oxidase inhibition: inhibited at high substrate concentration in detergent, inhibition disappears upon dilution in wash water, concentration-dependent; for hydrogen peroxide produced: liquid detergent formulations after 3 weeks of storage with inhibitor, diluted in wash liquor; for H2O2 generated: wash liquor control containing buffer
T1 construct: purchased Genencor OXYGO L-5000
Experimental: In these experiments, 100 mM Tris pH 8.3 with 0.005% TWEEN®-100 surfactant was used as a positive control. The choice of pH 8.3 was based upon the measured pH of the AATCC detergent. Three two-ml tubes containing 0.990 g of AATCC detergent (lot # 01282004) and another three tubes with 0.990 g of control buffer were weighed. Then, 90 mg (500 mM) glucose substrate was added to each tube. […] All of the tubes were placed on a rotary plate for an hour to allow good mixing and solubilization of glucose into the detergent. Then, 6 tubes containing five-ml wash water (5 mM HEPES with 6 GPG, pH 8) were prepared. Next, 500 PPM (0.5 mg, 14.88 ul) glucose oxidase (OXYGO™ L-5000, 5379 U/ml; 33.6 mg/ml; Genencor) was added to six 2-ml tubes (three with glucose/bisulfite containing control buffers and three with glucose/bisulfite containing AATCC detergent). All of the tubes were then set on the rotary plate (60 rpm) at room temperature. H2O2 production was measured using dipsticks (peroxidase/ABTS), as described in Example 1, for t=0+ minutes, 12 minutes, and 30 minutes. Immediately after addition of the enzyme to the detergent and control mixtures, 10 ul of the mixture were removed and mixed with 5 ml of wash water. All of the tubes were also then checked for hydrogen peroxide using dipsticks at 12 and 30 minutes. With 5 ml wash liquor, the final glucose oxidase enzyme concentration was 1 PPM and the glucose concentration was 1 mM.
In these experiments, 100 mM Tris pH 8.3 with 0.005% TWEEN®-100 surfactant was used as a positive control. The choice of pH 8.3 was based upon the measured pH of the AATCC detergent. Three two-ml tubes containing 0.990 g of AATCC detergent (lot # 01282004) and another three tubes with 0.990 g of control buffer were weighed. Then, 90 mg (500 mM) glucose substrate was added to each tube. Then, 100, 50, and 10 mM sodium metabisulfite were added to each tube respectively (i.e., both control buffer and AATCC detergent-containing tubes). All of the tubes were placed on a rotary plate for an hour to allow good mixing and solubilization of glucose into the detergent. Then, 6 tubes containing five-ml wash water (5 mM HEPES with 6 GPG, pH 8) were prepared. Next, 500 PPM (0.5 mg, 14.88 ul) glucose oxidase (OXYGO™ L-5000, 5379 U/ml; 33.6 mg/ml; Genencor) was added to six 2-ml tubes (three with glucose/bisulfite containing control buffers and three with glucose/bisulfite containing AATCC detergent). All of the tubes were then set on the rotary plate (60 rpm) at room temperature. H2O2 production was measured using dipsticks (peroxidase/ABTS), as described in the above Examples, for t=0+ minutes, 12 minutes, and 30 minutes. Immediately after addition of the enzyme to the detergent and control mixtures, 10 ul of the mixture were removed and mixed with 5 ml of wash water. All of the tubes were also then checked for hydrogen peroxide using dipsticks at 12 and 30 minutes. With 5 ml wash liquor, the final glucose oxidase enzyme concentration was 1 PPM and the glucose concentration was 1 mM.

alcohol oxidase [1] = target: T2, alcohol oxidase (Pichia angusta, UniProt P04841); test: Hydrogen peroxide concentration in control buffer or AATCC liquid detergent stock (as is) with alcohol oxidase, ethanol and inhibitor; assay type: biochemical, Hansunela sp.; settings: for character of alcohol oxidase inhibition: 100 mM concentration tested; for premature generation of H2O2 in AATCC detergent stock / H2O2 PPM: 100 mM inhibitor; for premature generation of H2O2 in AATCC detergent stock: period of investigation 120 minutes; for H2O2 PPM: as is, 1 M ethanol, 10U enzyme
T2 construct: purchased Sigma
Experimental: In these experiments, the stability of alcohol oxidase obtained from Hansunela sp., (100 U/ml. 22 U/mg, 13 mg total solid in vial, 7.7 U/mg solid; Sigma) in AATCC liquid detergent was tested. In these experiments, 10 U of the alcohol oxidase were used in liquid detergent stock for each experiment. For testing, 1M ethanol was mixed into the detergent (46 mg ethanol in 990 mg detergent). […] The experiments were conducted as described above in Examples 1 and 3.

alcohol oxidase [2] = target: T2, alcohol oxidase; test: Hydrogen peroxide concentration in wash liquor with alcohol oxidase, ethanol and inhibitor; assay type: biochemical, Hansunela sp.; settings: 2 mM ethanol, 0.02U enzyme, 0.2 mM inhibitor
Experimental: The stability and activity of the alcohol oxidase enzyme (described in Example 5) in AATCC liquid detergent (Sigma, 100 U/ml. 22 U/mg, 13 mg total solid in vial, 7.7 U/mg solid) was tested upon dilution into wash liquor. In these experiments, 10 U of alcohol oxidase were used in liquid detergent stock for each experiment. In addition, 1M ethanol (substrate) was mixed in detergent (46 mg ethanol in 990 mg detergent). […] In these experiments, 10 ul of final detergent mix or control mix were added to 5 ml of wash liquor. The same methods as described in Examples 2 and 4 were used in these experiments.

T1 sequence (P13006 17-605): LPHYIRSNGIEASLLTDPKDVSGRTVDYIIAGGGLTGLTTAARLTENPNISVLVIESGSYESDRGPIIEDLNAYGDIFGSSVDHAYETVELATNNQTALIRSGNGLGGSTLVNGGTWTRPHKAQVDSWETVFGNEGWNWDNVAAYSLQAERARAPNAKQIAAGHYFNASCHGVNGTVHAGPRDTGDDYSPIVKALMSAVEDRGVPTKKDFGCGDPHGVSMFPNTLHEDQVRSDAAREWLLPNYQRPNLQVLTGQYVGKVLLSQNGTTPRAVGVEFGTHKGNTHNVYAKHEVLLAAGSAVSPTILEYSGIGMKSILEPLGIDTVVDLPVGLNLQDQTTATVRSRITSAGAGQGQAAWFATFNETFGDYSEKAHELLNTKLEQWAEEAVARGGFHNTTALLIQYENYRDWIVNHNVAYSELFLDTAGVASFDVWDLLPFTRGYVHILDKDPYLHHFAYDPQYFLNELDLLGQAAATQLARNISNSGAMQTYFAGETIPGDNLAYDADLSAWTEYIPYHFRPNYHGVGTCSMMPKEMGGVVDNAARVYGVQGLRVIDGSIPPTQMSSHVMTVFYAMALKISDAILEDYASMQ
T2 sequence (P04841 whole entry): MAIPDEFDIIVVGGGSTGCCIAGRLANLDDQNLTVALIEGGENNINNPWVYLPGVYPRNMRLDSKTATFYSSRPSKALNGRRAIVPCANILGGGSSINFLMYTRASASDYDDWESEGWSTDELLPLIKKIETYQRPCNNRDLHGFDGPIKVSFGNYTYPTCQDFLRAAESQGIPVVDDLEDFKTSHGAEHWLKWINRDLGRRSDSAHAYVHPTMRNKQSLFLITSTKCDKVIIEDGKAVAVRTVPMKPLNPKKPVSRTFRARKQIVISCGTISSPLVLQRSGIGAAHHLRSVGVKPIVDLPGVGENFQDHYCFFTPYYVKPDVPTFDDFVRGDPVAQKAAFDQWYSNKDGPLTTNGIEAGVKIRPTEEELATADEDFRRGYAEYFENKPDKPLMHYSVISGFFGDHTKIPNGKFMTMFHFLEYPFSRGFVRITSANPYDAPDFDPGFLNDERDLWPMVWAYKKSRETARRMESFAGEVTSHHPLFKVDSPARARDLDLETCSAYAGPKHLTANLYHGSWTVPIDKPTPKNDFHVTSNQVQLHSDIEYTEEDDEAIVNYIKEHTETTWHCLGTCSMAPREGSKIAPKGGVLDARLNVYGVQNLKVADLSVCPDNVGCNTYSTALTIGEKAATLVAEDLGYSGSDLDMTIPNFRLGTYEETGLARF

SMILES | character of glucose oxidase inhibition (glucose oxidase) | character of alcohol oxidase inhibition (alcohol oxidase [1]) | premature generation of H2O2 in AATCC detergent stock (alcohol oxidase [1]) | H2O2 PPM (alcohol oxidase [1]; AATCC Detergent, T = 0+) | H2O2 PPM (alcohol oxidase [1]; AATCC Detergent, T = 12 min) | H2O2 PPM (alcohol oxidase [1]; AATCC Detergent, T = 30 min) | H2O2 PPM (alcohol oxidase [1]; AATCC Detergent, T = 120 min) | H2O2 PPM (alcohol oxidase [1]; Control Buffer, T = 0+) | H2O2 PPM (alcohol oxidase [1]; Control Buffer, T = 12 min) | H2O2 PPM (alcohol oxidase [1]; Control Buffer, T = 30 min) | H2O2 PPM (alcohol oxidase [1]; Control Buffer, T = 120 min) | H2O2 PPM (alcohol oxidase [2]; AATCC Detergent, T = 12 min) | H2O2 PPM (alcohol oxidase [2]; AATCC Detergent, T = 30 min) | H2O2 PPM (alcohol oxidase [2]; AATCC Detergent, T = 120 min) | H2O2 PPM (alcohol oxidase [2]; Control Buffer, T = 0+) | H2O2 PPM (alcohol oxidase [2]; Control Buffer, T = 12 min) | H2O2 PPM (alcohol oxidase [2]; Control Buffer, T = 30 min) | H2O2 PPM (alcohol oxidase [2]; Control Buffer, T = 120 min) | further results
O=S([O-])O.[Na+] [bisulfite, sodium hydrogen sulfite] | reversible inhibitor | reversible inhibitors | able to stop premature generation of H2O2 | 0 PPM | 0 PPM | 0 PPM | 0, PPM | 0 PPM | 0 PPM | 0 PPM | 0 PPM | 0 PPM | 0 PPM | >3 (hydrogen sulfite) PPM | 0 PPM | 0 PPM | 0 PPM | 1 (hydrogen sulfite) PPM | Hydrogen Peroxide Generation, PPM H2O2 (glucose oxidase; AATCC Detergent, T = 12 (second line so headed, after the T = 30 lines), 0.2 mM bisulfite): ˜10 PPM; Hydrogen Peroxide Generation, PPM H2O2 (glucose oxidase; AATCC Detergent, T = 12 min, 0.02 mM bisulfite): 3 PPM; Hydrogen Peroxide Generation, PPM H2O2 (glucose oxidase; AATCC Detergent, T = 12 min, 0.1 mM bisulfite): 3 PPM; Hydrogen Peroxide Generation, PPM H2O2 (glucose oxidase; AATCC Detergent, T = 12 min, 0.2 mM bisulfite): 3 PPM; Hydrogen Peroxide Generation, PPM H2O2 (glucose oxidase; AATCC Detergent, T = 30 min, 0.02 mM bisulfite): 10 PPM; Hydrogen Peroxide Generation, PPM H2O2 (glucose oxidase; AATCC Detergent, T = 30 min, 0.1 mM bisulfite): ˜10 PPM; Hydrogen Peroxide Generation, PPM H2O2 (glucose oxidase; Control Buffer, T = 12 (second line so headed, after the T = 30 lines), 0.2 mM bisulfite): ˜3 PPM; Hydrogen Peroxide Generation, PPM H2O2 (glucose oxidase; Control Buffer, T = 30 min, 0.02 mM bisulfite): 10 PPM; Hydrogen Peroxide Generation, PPM H2O2 (glucose oxidase; Control Buffer, T = 30 min, 0.1 mM bisulfite): ˜10 PPM; hydrogen peroxide generated (glucose oxidase; wash liquor containing AATCC detergent, all three bisulfite inhibitor concentrations, 12 minutes): > 3 PPM; hydrogen peroxide generated (glucose oxidase; wash liquor with AATCC detergent, all three bisulfite inhibitor concentrations, 30 minutes): ~10 PPM; H2O2 PPM (alcohol oxidase [2]; AATCC Detergent, T = 0+): 0 PPM
O=S([O-])S(=O)(=O)[O-].[Na+].[Na+] [sodium metabisulfite] | reversible inhibitor | reversible inhibitors | able to stop premature generation of H2O2 | 0 PPM | 0 PPM | 0 PPM | 0, PPM | 0 PPM | 0 PPM | 0 PPM | 0 PPM | 0 PPM | 0 PPM | 1 (metabisulfite) PPM | 0 PPM | 0 PPM | 0 PPM | 0 (metabisulfite) PPM | H2O2 PPM (glucose oxidase; AATCC Detergent, T = 12 min, 1 PPM enzyme, 0.2 mM sodium metabisulfite): 3 PPM; H2O2 PPM (glucose oxidase; AATCC Detergent, T = 30 min, 1 PPM enzyme, 0.2 mM sodium metabisulfite): ˜10 PPM; H2O2 PPM (glucose oxidase; AATCC Detergent, T = 60 min, 1 PPM glucose oxidase, 0.2 mM sodium metabisulfite): >10 PPM; H2O2 PPM (glucose oxidase; Control Buffer, T = 12 min, 1 PPM enzyme, 0.2 mM sodium metabisulfite (100 mM in formulation)): ~3 PPM; H2O2 PPM (glucose oxidase; Control Buffer, T = 12 min, 1 PPM enzyme, 0.2 mM sodium metabisulfite (100 mM in formulation), listed as sodium metabisulftie): 1 PPM; H2O2 PPM (glucose oxidase; Control Buffer, T = 30 min, 1 PPM enzyme, 0.2 mM sodium metabisulfite): 3 PPM; H2O2 PPM (glucose oxidase; Control Buffer, T = 60 min, 1 PPM glucose oxidase, 0.2 mM sodium metabisulfite): 10 PPM; hydrogen peroxide produced (glucose oxidase; 12 minutes): 3 PPM; hydrogen peroxide produced (glucose oxidase; 30 minutes): ~10 PPM; hydrogen peroxide generated (glucose oxidase; wash liquor containing AATCC detergent, all three metabisulfite inhibitor concentrations, 12 minutes): > 3 PPM; H2O2 generated (glucose oxidase; 10 mM metabisulfite (formulation), 12 minutes): about 10 PPM; H2O2 generated (glucose oxidase; 50 mM metabisulfite (formulation), 12 minutes): about 10 PPM; hydrogen peroxide generated (glucose oxidase; wash liquor with AATCC detergent, all three metabisulfite inhibitor concentrations, 30 minutes): ~10 PPM
